Data taken from BindingDB's records for doi:10.1016/j.bmcl.2004.09.002 (A.V. Bogatsky Physico-Chemical Institute of The National …, 2004).
Counter-ions that a name gives are not always drawn.

Experiment: In vitro inhibition of human platelet aggregation in suspension

Row | IC50 [µM] | SMILES
1 | 0.27 | O=C(O)CC(NC(=O)CCC(=O)Nc1ccc2c(c1)CNC2)c1ccccc1 (configuration not stated) [3-[3-(2,3-Dihydro-1H-isoindol-5-ylcarbamoyl)-propionylamino]-3-phenyl-propionic acid; hydrochloride]
2 | 2.09 | O=C(O)CCNC(=O)CCC(=O)Nc1ccc2c(c1)CNC2 [3-[3-(2,3-Dihydro-1H-isoindol-5-ylcarbamoyl)-propionylamino]-propionic acid; hydrochloride]
